Source: patent US10662204B2 (PFIZER INC., priority 2018, dated 2020)

Tests used:
[1] = molecular target: T1, GDP-loaded KRAS (1-169) G12C, C51S, C80L, C118S (Homo sapiens, UniProt P01116, C118S/C51S/C80L/G12C); assay: Mass Spectrometry Reactivity Assay (MSRA): covalent adduct of compound and KRAS G12C, Percent Modification; assay type: binding; settings: for MSRA (% modification) 5.0 μM 0.017 hr / MSRA (% modification) 5.0 μM 0.25 hr: 5.0 μM compound; for MSRA (% modification) 10 μM 0.25 hr / MSRA (% modification) 10 μM 0.50 hr: 10 μM compound
T1 construct: GDP-loaded KRAS (1-169) G12C, C51S, C80L, C118S
Method in brief: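 GDP-loaded KRAS(1-169) G12C/C51S/C80L/C118S at 5 μM in 25 mM Hepes pH 7.5, 200 mM NaCl, 5% glycerol incubated at RT with compound (typically 5 or 10 μM final, 1% DMSO). Quenched in formic acid at 1-60 min; intact-protein LC-TOF MS gives % modification = modified/(modified+unmodified).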

[2] = molecular target: T2, KRAS G12C (Homo sapiens, UniProt P01116, G12C); assay: Cell Activity Assay: accumulation of GDP-bound KRAS G12C in MIAPaCa-2 cells (Raf-1 RBD capture, MSD readout); assay type: cell-based; parameters: endogenous in cells; host or cells: MIAPaCa-2; settings: 6 hours, assay limit is 30.00
Method in brief: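 MIAPaCa-2 cells exposed 6 h at 37 °C to 3-fold compound dilutions (0.3% DMSO final), then lysed. Active GTP-KRAS captured on Raf-1 RBD-coated plates, detected with anti-pan-Ras and SULFO-TAG secondary by MSD electrochemiluminescence. Signal normalized to DMSO and maximum inhibition; IC50 from 4-parameter fit.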

[3] = molecular target: T2, KRAS G12C; assay: Cell Activity Assay: IC50 in H358 cells; assay type: cell-based; parameters: endogenous in cells
Protocol: Compounds presented in the present invention lead to the accumulation of the GDP bound Ras upon treatment of human cancer cell line.
The accumulation of the GDP-bound KRAS G12C in cellular environment was measured based on the principle that KRAS G12C only binds to its downstream kinase; Raf-1 (MAP Kinase Kinase Kinase), when in its active-GTP bound state. In this state, Ras binded to a domain of Raf-1 kinase referred to as the Ras Binding Domain (RBD).
Raf-1 RBD (LJIC-1988A1) was diluted to 100 ng/well in PBS and 5 μl/well was spot coated onto MSD high bind SECTOR plates (L15XB). Plates were incubated at room temperature for 1 hour on an orbital shaker. Plates were washed with PBS/0.05% Tween-20 and 50 μl/well of thawed lysate samples were added, followed by 50 μl of 1% MSD Blocker A in PBS/0.05 Tween-20 (R93BA). Plates were incubated for 1 hour on an orbital shaker and washed with PBS/0.05% Tween-20. 25 μl/well of Anti-pan-Ras Antibody (Cell Biolabs 244003) diluted 1:3000 was added in 1% MSD Blocker A solution and plates were incubated for 1 hour on an orbital shaker and washed with PBS/0.05% Tween-20. SULFO-TAG goat anti-mouse secondary antibody (MSD R32AC) was diluted 1:500 in MSD Blocker A solution and added at 25 μL/well. Plates were incubated for 1 hour on an orbital shaker and washed with PBS/0.05% Tween-20. 150 μl/well of Read Buffer T (MSD R92TC) diluted 1:3 in H2O was added and plates were read on a Meso Scale Discovery Sector Imager S600.
KRAS signal was normalized to maximum inhibition and DMSO control values, and IC50 values were generated using a 4 parameter fit of the dose response curve. The decrease in IC50 reflects that the exemplary compound lead to a higher level of accumulation of GDP-bound KRAS G12C than another exemplary compounds at specific timepoint of treatment of cancer cell line.

Row | SMILES | MSRA (% modification) 5.0 μM 0.017 hr [1] [%] | MSRA (% modification) 5.0 μM 0.25 hr [1] [%] | MSRA (% modification) 10 μM 0.25 hr [1] [%] | MSRA (% modification) 10 μM 0.50 hr [1] [%] | IC50 [2] [µM] | IC50 [3] [µM]
1 | C=CC(=O)N1CCN(c2nc(OC[C@H]3CN(C)C[C@@H]3OC)nc3c(Oc4c(Cl)c(F)cc5[nH]ncc45)nc(Cl)cc23)CC1 [Example 18G, 1-[4-(6-chloro-8-[(5-chloro-6-fluoro-1H-indazol-4-yl)oxy]-2-{[(3R,4R)-4-methoxy-1-methylpyrrolidin-3-yl]methoxy}pyrido[3,4-d]pyrimidin-4-yl)piperazin-1-yl]prop-2-en-1-one] | 43 | 88 | 81 | 84 | 0.034 | 0.087
2 | C=CC(=O)N1CCN(c2ncnc3c(Oc4c(Cl)c(C)cc5[nH]ncc45)nccc23)CC1 [Example 11A, 1-(4-{8-[(5-chloro-6-methyl-1H-indazol-4-yl)oxy]pyrido[3,4-d]pyrimidin-4-yl}piperazin-1-yl)prop-2-en-1-one] | – | – | 44 | 68 | 0.892 | 2.56
3 | C=CC(=O)N1CCN(c2nc(OC[C@@H]3C[C@H](OC)CN3C)nc3c(Oc4c(Cl)c(F)cc5[nH]ncc45)nc(Cl)cc23)CC1 [Example 20G, 1-[4-(6-chloro-8-[(5-chloro-6-fluoro-1H-indazol-4-yl)oxy]-2-{[(2S,4S)-4-methoxy-1-methylpyrrolidin-2-yl]methoxy}pyrido[3,4-d]pyrimidin-4-yl)piperazin-1-yl]prop-2-en-1-one] | 26 | – | 79 | – | 0.08 | 0.152
4 | C=CC(=O)N1CCN(c2nc(OC[C@@H]3CCCN3C)nc3c(Oc4c(Cl)c(F)cc5[nH]ncc45)nccc23)CC1 [Example 01H, 1-[4-(8-[(5-chloro-6-fluoro-1H-indazol-4-yl)oxy]-2-{[(2S)-1-methylpyrrolidin-2-yl]methoxy}pyrido[3,4-d]pyrimidin-4-yl)piperazin-1-yl]prop-2-en-1-one] | – | 66 | 81 | – | 0.117 | 0.191
5 | C=CC(=O)N1CCN(c2nc(OC[C@@H]3CCCN3C)nc3c(Oc4c(Cl)c(F)cc5[nH]ncc45)nc(Cl)cc23)CC1 [Example 01G, 1-[4-(6-chloro-8-[(5-chloro-6-fluoro-1H-indazol-4-yl)oxy]-2-{[(2S)-1-methylpyrrolidin-2-yl]methoxy}pyrido[3,4-d]pyrimidin-4-yl)piperazin-1-yl]prop-2-en-1-one] | – | – | 82 | – | 0.04 | 0.06
6 | C=CC(=O)N1CCN(c2ncnc3c(Oc4c(Cl)c(C)cc5[nH]ncc45)nc(Cl)cc23)CC1 [Example 15A, 1-(4-{6-chloro-8-[(5-chloro-6-methyl-1H-indazol-4-yl)oxy]pyrido[3,4-d]pyrimidin-4-yl}piperazin-1-yl)prop-2-en-1-one] | – | – | – | 67 | 0.468 | –
7 | C=CC(=O)N1CCN(c2nc(O[C@@H]3CN(C)C[C@H]3CC)nc3c(Oc4c(Cl)c(F)cc5[nH]ncc45)nc(Cl)cc23)CC1 (racemic) [Example 28G, rac-1-[4-(6-chloro-8-[(5-chloro-6-fluoro-1H-indazol-4-yl)oxy]-2-{[(3S,4R)-4-ethyl-1-methylpyrrolidin-3-yl]oxy}pyrido[3,4-d]pyrimidin-4-yl)piperazin-1-yl]prop-2-en-1-one] | 60 | – | – | – | 0.037 | –
8 | C=CC(=O)N1CCN(c2nc(Oc3cccc4c3CCN(C)C4)nc3c(Oc4c(Cl)c(Cl)cc5[nH]ncc45)nccc23)CC1 [Example 50I, 1-(4-{8-[(5,6-dichloro-1H-indazol-4-yl)oxy]-2-[(2-methyl-1,2,3,4-tetrahydro-isoquinolin-5-yl)oxy]pyrido [3,4-d]pyrimidin-4-yl}piperazin-1-yl)prop-2-en-1-one] | 70 | – | – | – | 0.008 | –
9 | C=CC(=O)N1CCN(c2nc(O[C@@H]3CN(C)C[C@H]3OC)nc3c(Oc4c(Cl)c(F)cc5[nH]ncc45)nccc23)[C@@H](C)C1 [Example 33I, 1-[(3S)-4-(8-[(5-chloro-6-fluoro-1H-indazol-4-yl)oxy]-2-{[(3R,4R)-4-methoxy-1-methyl-pyrrolidin-3-yl]oxy}pyrido [3,4-d]pyrimidin-4-yl)-3-methyl-piperazin-1-yl]prop-2-en-1-one] | 74 | – | – | – | 0.039 | –
10 | C=CC(=O)N1CCN(c2ncnc3c(Oc4c(C)c(Cl)cc5[nH]ncc45)nc(C#N)cc23)C[C@@H]1C [Example 33A, 4-[(3S)-4-acryloyl-3-methylpiperazin-1-yl]-8-[(6-chloro-5-methyl-1H-indazol-4-yl)oxy]pyrido[3,4-d]pyrimidine-6-carbonitrile] | – | – | – | 34 | > 30 | –
11 | C=CC(=O)N1CCN(c2nc(NCc3ncc[nH]3)nc3c(Oc4c(C)ccc5[nH]ncc45)cccc23)CC1 [Example 20F, 1-(4-{2-[(1H-imidazol-2-ylmethyl)amino]-8-[(5-methyl-1H-indazol-4-yl)oxy]quinazolin-4-yl}piperazin-1-yl)prop-2-en-1-one] | – | – | 17 | – | 2.99 | –
12 | C=CC(=O)N1CCN(c2ncnc3c(Oc4c(C)ccc5[nH]ncc45)nc(C)cc23)CC1 [Example 02A, 1-(4-{6-methyl-8-[(5-methyl-1H-indazol-4-yl)oxy]pyrido[3,4-d]pyrimidin-4-yl}piperazin-1-yl)prop-2-en-1-one] | – | – | – | 15 | 5.25 | –
13 | C=CC(=O)N1CCN(c2nc(Oc3cccnc3C(C)C)nc3c(Oc4c(Cl)c(F)cc5[nH]ncc45)nccc23)CC1 [Example 05I, 1-[4-(8-[(5-chloro-6-fluoro-1H-indazol-4-yl)oxy]-2-{[2-(propan-2-yl)pyridin-3-yl]oxy}pyrido [3,4-d]pyrimidin-4-yl)piperazin-1-yl]prop-2-en-1-one] | – | 70 | – | – | 0.074 | –
14 | C=CC(=O)N1CCN(c2ncnc3c(Oc4c(Cl)ccc5[nH]ncc45)nc(C(F)(F)F)cc23)CC1 [Example 04A] | – | – | – | 40 | 2.26 | –
15 | C=CC(=O)N1CCN(c2nc(O[C@@H]3CN(C)C[C@H]3OC)nc3c(Oc4c(C)c(Cl)cc5[nH]ncc45)nccc23)CC1 [Example 40I, 1-[4-(8-[(6-chloro-5-methyl-1H-indazol-4-yl)oxy]-2-{[(3R,4R)-4-methoxy-1-methyl-pyrrolidin-3-yl]oxy}pyrido [3,4-d]pyrimidin-4-yl)piperazin-1-yl]prop-2-en-1-one] | 68 | – | – | – | 0.02 | –
16 | C=CC(=O)N1CCN(c2nc(OC[C@H]3CCCN3C)nc3c(Oc4c(C)ccc5[nH]ncc45)cccc23)CC1 [Example 06E, 1-[4-(8-[(5-methyl-1H-indazol-4-yl)oxy]-2-{[(2R)-1-methylpyrrolidin-2-yl]methoxy}quinazolin-4-yl)piperazin-1-yl]prop-2-en-1-one] | – | 35 | 70 | 75 | 0.585 | –
17 | C=CC(=O)N1CCN(c2nc(NC(C)c3nncn3C)nc3c(Oc4c(C)ccc5[nH]ncc45)cccc23)CC1 (stereo not shown) [Example 03F, 1-[4-(8-[(5-methyl-1H-indazol-4-yl)oxy]-2-{[1-(4-methyl-4H-1,2,4-triazol-3-yl)ethyl]amino}quinazolin-4-yl)piperazin-1-yl]prop-2-en-1-one] | – | – | – | 12 | > 30 | –
18 | C=CC(=O)N1CCN(c2nc(OCCO)nc3c(Oc4c(Cl)c(F)cc5[nH]ncc45)nc(Cl)cc23)CC1 [Example 23G, 1-(4-{6-chloro-8-[(5-chloro-6-fluoro-1H-indazol-4-yl)oxy]-2-(2-hydroxyethoxy)pyrido[3,4-d]pyrimidin-4-yl}piperazin-1-yl)prop-2-en-1-one] | – | 35 | – | – | 0.688 | –
